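In this assay, cells in 96-well plates receive the compound at five concentrations for 48 hours. Endpoints are linearly interpolated between the surrounding concentrations. TGI marks complete inhibition of growth.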
Tested on: MDA-MB-231 breast
Assay: NCI-60 cell line screen, 48 h

`CCOC(=O)C1CN(C2CC2)CCC1=O` (stereo not drawn) and `CCOC(=O)C(C)c1nc2c(Cl)c3ncccc3cc2[nH]c1=O` (stereo not drawn) cannot be ordered by TGI: > 100 µM for the first, > 100 µM for the second.

`Cc1cc2nc(-c3cc(C(C)(C)C)c(O)c(C(C)(C)C)c3)[nH]c2cc1C` and `c1ccc(-c2cnc(-c3ccc(-c4ncc(-c5ccccc5)o4)cc3)o2)cc1` cannot be ordered by TGI: > 100 µM for the first, > 100 µM for the second.

Going from `CC(C)C1=C2CCC3(C)C(CCC4C5C6OCC5(CCC6(C)C)CCC43C)C2(C)CC1` (stereo not drawn) to `COC(=O)C1=C(O)C(C(=O)OC)[C@@]2(O)[C@@H](C(=O)OC)[C@H](C)[C@@H](C)[C@@H]1[C@@H]2C(=O)OC` (stereo partly drawn), the TGI rises from 37.3 µM to > 100 µM.

Tested on: HOP-62 NSCLC
Assay: NCI-60 cell line screen, 48 h

`CCOC(=O)C1CN(C2CC2)CCC1=O` (stereo not drawn) and `CCOC(=O)C(C)c1nc2c(Cl)c3ncccc3cc2[nH]c1=O` (stereo not drawn) cannot be ordered by TGI: > 100 µM for the first, > 100 µM for the second.

`Cc1cc2nc(-c3cc(C(C)(C)C)c(O)c(C(C)(C)C)c3)[nH]c2cc1C` and `c1ccc(-c2cnc(-c3ccc(-c4ncc(-c5ccccc5)o4)cc3)o2)cc1` cannot be ordered by TGI: > 100 µM for the first, > 100 µM for the second.

First: CC(C)C1=C2CCC3(C)C(CCC4C5C6OCC5(CCC6(C)C)CCC43C)C2(C)CC1 (stereo not drawn)
Second: COC(=O)C1=C(O)C(C(=O)OC)[C@@]2(O)[C@@H](C(=O)OC)[C@H](C)[C@@H](C)[C@@H]1[C@@H]2C(=O)OC (stereo partly drawn)
The TGI of the first is lower: 38.9 µM for the first, > 100 µM for the second.

For `O=C(OCC(OC(=O)c1ccccc1)C(OC(=O)c1ccccc1)C(OC(=O)c1ccccc1)c1cnn(-c2ccccc2)n1)c1ccccc1` (stereo not drawn), the TGI was > 100 µM.

Tested on: SF-539 CNS
Assay: NCI-60 cell line screen, 48 h

`Cc1cc2nc(-c3cc(C(C)(C)C)c(O)c(C(C)(C)C)c3)[nH]c2cc1C` and `COC(=O)C1=C(O)C(C(=O)OC)[C@@]2(O)[C@@H](C(=O)OC)[C@H](C)[C@@H](C)[C@@H]1[C@@H]2C(=O)OC` (stereo partly drawn) cannot be ordered by TGI: > 100 µM for the first, > 100 µM for the second.

Going from `CC(C)C1=C2CCC3(C)C(CCC4C5C6OCC5(CCC6(C)C)CCC43C)C2(C)CC1` (stereo not drawn) to `O=C(OCC(OC(=O)c1ccccc1)C(OC(=O)c1ccccc1)C(OC(=O)c1ccccc1)c1cnn(-c2ccccc2)n1)c1ccccc1` (stereo not drawn), the TGI rises from 32.9 µM to > 100 µM.

Tested on: BT-549 breast
Assay: NCI-60 cell line screen, 48 h

`CCOC(=O)C1CN(C2CC2)CCC1=O` (stereo not drawn) and `CCOC(=O)C(C)c1nc2c(Cl)c3ncccc3cc2[nH]c1=O` (stereo not drawn) cannot be ordered by TGI: > 100 µM for the first, > 100 µM for the second.

`Cc1cc2nc(-c3cc(C(C)(C)C)c(O)c(C(C)(C)C)c3)[nH]c2cc1C` and `c1ccc(-c2cnc(-c3ccc(-c4ncc(-c5ccccc5)o4)cc3)o2)cc1` cannot be ordered by TGI: > 100 µM for the first, > 100 µM for the second.

Going from `CC(C)C1=C2CCC3(C)C(CCC4C5C6OCC5(CCC6(C)C)CCC43C)C2(C)CC1` (stereo not drawn) to `COC(=O)C1=C(O)C(C(=O)OC)[C@@]2(O)[C@@H](C(=O)OC)[C@H](C)[C@@H](C)[C@@H]1[C@@H]2C(=O)OC` (stereo partly drawn), the TGI rises from 52.2 µM to > 100 µM.

In the case of `O=C(OCC(OC(=O)c1ccccc1)C(OC(=O)c1ccccc1)C(OC(=O)c1ccccc1)c1cnn(-c2ccccc2)n1)c1ccccc1` (stereo not drawn), the TGI is reported as > 100 µM.

Tested on: U251 CNS
Assay: NCI-60 cell line screen, 48 h

`CCOC(=O)C1CN(C2CC2)CCC1=O` (stereo not drawn) and `CCOC(=O)C(C)c1nc2c(Cl)c3ncccc3cc2[nH]c1=O` (stereo not drawn) cannot be ordered by TGI: > 100 µM for the first, > 100 µM for the second.

`Cc1cc2nc(-c3cc(C(C)(C)C)c(O)c(C(C)(C)C)c3)[nH]c2cc1C` and `c1ccc(-c2cnc(-c3ccc(-c4ncc(-c5ccccc5)o4)cc3)o2)cc1` cannot be ordered by TGI: > 34.3 µM for the first, > 100 µM for the second.

Going from `CC(C)C1=C2CCC3(C)C(CCC4C5C6OCC5(CCC6(C)C)CCC43C)C2(C)CC1` (stereo not drawn) to `COC(=O)C1=C(O)C(C(=O)OC)[C@@]2(O)[C@@H](C(=O)OC)[C@H](C)[C@@H](C)[C@@H]1[C@@H]2C(=O)OC` (stereo partly drawn), the TGI rises from 37 µM to > 100 µM.

Tested on: NCI-H522 lung
Assay: NCI-60 cell line screen, 48 h

`Cc1cc2nc(-c3cc(C(C)(C)C)c(O)c(C(C)(C)C)c3)[nH]c2cc1C` and `CCOC(=O)C(C)c1nc2c(Cl)c3ncccc3cc2[nH]c1=O` (stereo not drawn) cannot be ordered by TGI: > 100 µM for the first, > 100 µM for the second.

Compared with `CC(C)C1=C2CCC3(C)C(CCC4C5C6OCC5(CCC6(C)C)CCC43C)C2(C)CC1` (stereo not drawn), `COC(=O)C1=C(O)C(C(=O)OC)[C@@]2(O)[C@@H](C(=O)OC)[C@H](C)[C@@H](C)[C@@H]1[C@@H]2C(=O)OC` (stereo partly drawn) is 2.5-fold higher in TGI: 36.5 µM for the first, 92.2 µM for the second.

`c1ccc(-c2cnc(-c3ccc(-c4ncc(-c5ccccc5)o4)cc3)o2)cc1` and `O=C(OCC(OC(=O)c1ccccc1)C(OC(=O)c1ccccc1)C(OC(=O)c1ccccc1)c1cnn(-c2ccccc2)n1)c1ccccc1` (stereo not drawn) cannot be ordered by TGI: > 100 µM for the first, > 100 µM for the second.

Tested on: MCF7 breast
Assay: NCI-60 cell line screen, 48 h

First: CCOC(=O)C1CN(C2CC2)CCC1=O (stereo not drawn)
Second: CC(C)C1=C2CCC3(C)C(CCC4C5C6OCC5(CCC6(C)C)CCC43C)C2(C)CC1 (stereo not drawn)
The TGI of the first is higher: > 100 µM for the first, 47.7 µM for the second.

`c1ccc(-c2cnc(-c3ccc(-c4ncc(-c5ccccc5)o4)cc3)o2)cc1` and `O=C(OCC(OC(=O)c1ccccc1)C(OC(=O)c1ccccc1)C(OC(=O)c1ccccc1)c1cnn(-c2ccccc2)n1)c1ccccc1` (stereo not drawn) cannot be ordered by TGI: > 100 µM for the first, > 100 µM for the second.

`COC(=O)C1=C(O)C(C(=O)OC)[C@@]2(O)[C@@H](C(=O)OC)[C@H](C)[C@@H](C)[C@@H]1[C@@H]2C(=O)OC` (stereo partly drawn) was tested, and the TGI was > 100 µM.

Tested on: EKVX NSCLC
Assay: NCI-60 cell line screen, 48 h

`CCOC(=O)C1CN(C2CC2)CCC1=O` (stereo not drawn) and `CCOC(=O)C(C)c1nc2c(Cl)c3ncccc3cc2[nH]c1=O` (stereo not drawn) cannot be ordered by TGI: > 100 µM for the first, > 100 µM for the second.

`Cc1cc2nc(-c3cc(C(C)(C)C)c(O)c(C(C)(C)C)c3)[nH]c2cc1C` and `c1ccc(-c2cnc(-c3ccc(-c4ncc(-c5ccccc5)o4)cc3)o2)cc1` cannot be ordered by TGI: > 100 µM for the first, > 100 µM for the second.

First: CC(C)C1=C2CCC3(C)C(CCC4C5C6OCC5(CCC6(C)C)CCC43C)C2(C)CC1 (stereo not drawn)
Second: COC(=O)C1=C(O)C(C(=O)OC)[C@@]2(O)[C@@H](C(=O)OC)[C@H](C)[C@@H](C)[C@@H]1[C@@H]2C(=O)OC (stereo partly drawn)
The TGI of the first is lower: 39.2 µM for the first, > 100 µM for the second.

In the case of `O=C(OCC(OC(=O)c1ccccc1)C(OC(=O)c1ccccc1)C(OC(=O)c1ccccc1)c1cnn(-c2ccccc2)n1)c1ccccc1` (stereo not drawn), the TGI is reported as > 100 µM.
